Laboratory results taken from patent US7109175B1, “Specific steady-state R-type CA2+ channel blockers and use thereof” (Universite de Sherbrooke, priority 2000, dated 2006).
Entries after “also recorded” stand apart in the source; their conditions may differ.

What was measured:
R-type Ca^2+ channel [1] = test: Fura-2 [Ca]i, freshly isolated human aortic endothelial cells; format: cell-based; settings: 10^−9M
Source text: (§1) This sustained increase of Ca^2+ induced by depolarization of the cell membrane or hormones such as PAF, ET-1 and bradykinin is due to the increase of Ca^2+ influx through the R-type Ca^2+ channels at the sarcolemmal membrane and/or the nuclear membrane (Bkaily G., 1994, supra; 1996, supra; 1997a–d, supra). Using Ca^2+ fluorescence probes Fura-2 or Fluo-3 and 2 and three-dimension Ca^2+ imaging techniques (Bkaily G., 1994, supra; 1996, supra; 1997a–d, supra), the effect of hormones and drugs could be easily tested. These two methods are used with single cells of different types as described above.
(§2) In another series of experiments we tested the effect of MV8608 (10^−9M) on R-type Ca^2+ channels stimulation-induced sustained increase of total intracellular Ca^2+ by sustained depolarization (FIGS. 15 to 19), by PAF (10^−9M) (FIGS. 16 to 19 and 21 to 22), by ET-1 (10^−9M) (FIGS. 16 and 19) and bradykinin (BK, 10^−6M) (FIGS. 20 and 21), in embryonic chick heart cells (FIGS. 15, 16, 19 and 20), 19-week-old human fetal heart cells (FIGS. 15, 17, 18 and 20), rabbit aortic vascular smooth muscle (VSM) cells (FIGS. 20 and 21), human aortic VSM cell-line (FIG. 23) and freshly isolated (FIG. 22) as well as in freshly isolated aortic endothelial cells (FIG. 22).

T-type Ca^2+ current = test: Whole-cell voltage clamp, T-type Ca2+ current in heart cells; format: cell-based
Experimental: (§3) Single cells of different types in culture were prepared from biopsies of human, chick and rabbit. Known and accepted methods for the isolation of fast Na^+ current, T, L and R-type Ca^2+ channels as well as delayed outward K^+ current were used (Bkaily 1994, supra).
(§4) The compounds to be tested are added to the appropriate extracellular solution after recording a stable ionic current or normal steady-state level of […]. The effect of different concentrations of compounds are tested on the different type of current and [Ca]i of the different cell types. The effect of each concentration of the compounds in function of the time of exposure are then determined. Once the steady-state effect is reached, the second concentration is added, etc.
In another series of experiments (n=7), the effect of different concentrations of MV8608 were tested on the T-type Ca^2+ current (ICa) using the whole-cell voltage clamp technique and classical experimental conditions described elsewhere by the inventors (Bkaily G. et al., 1991, supra; 1992, supra; 1993, supra). […] As it can be seen in that figure, the inset effect of MV8608 in T-type ICa is immediate.

L-type Ca^2+ current = test: Whole-cell voltage clamp, L-type Ca2+ current in heart cells of chick embryos; format: cell-based; settings: for overall effect on L-type Ca2+ channel: summary in words
Experimental: as §3, §4
In another series of experiments (n=5), the effect of different concentrations of MV8608 (10^−11 to 10^−6M) were tested on the L-type ICa of heart cells of chick embryos using the whole-cell and experimental conditions and protocols described elsewhere by the inventors (Bkaily G. et al., 1993, supra). As for the T-type ICa, the L-type ICa was not affected by 10^−11 to 10^−10M MV8608.
In another series of experiments (n=4), we tested the effect of MV8612 on the L-type Ca^2+ current (ICa) in chick embryonic heart cells using the whole-cell voltage clamp technique referred to above. Superfusion with 10^−9M of MV8612 decreased ICa amplitude by 10% and increasing the concentration of the compound up to 10^−8M further decreased the current amplitude by 25%. Higher concentration of MV8612 (10^−7M) decreased the ICa amplitude by 62%.

R-type Ca^2+ channel [2] = test: Confocal Fluo-3 3-dimension measurement of [Ca]c and [Ca]n, chick heart cells and human aortic VSM cell line; format: cell-based; settings: for sustained increase of [Ca]c and [Ca]n induced by high PAF: PAF 10^−7M; for sustained depolarization induced sustained increase of [Ca]c and [Ca]n: heart cells, FIG. 29 panel A; for prevention of sustained increase of [Ca]c and [Ca]n: chick heart cells and human aortic VSM cell line
[3] = system: contraction of rat uterus induced by BK; settings: Calixto et al. 1987; cited from earlier work
R-type Ca^2+ channel [4] = test: Fura-2 [Ca]i, rabbit aortic vascular smooth muscle cells; format: cell-based; settings: 10^−9M
Source text: as §1
as §2, with “22). […]” for “22).”

R-type Ca^2+ channel [5] = test: Fura-2 [Ca]i, human fetal heart cells; format: cell-based; settings: 10^−9M, KCl 30 mM, PAF 10^−9M
Source text: These two methods are used with single cells of different types as described above.
as §2

[6] = system: PAF-induced arterial vasodilatation and venconstriction; test: Double-perfused mesenteric bed of the rat
Source text: The inhibitory properties of MV8608 are specific for PAF as the response to ACh (arterial) and AngII (venous) are unaffected by the pregnane-containing moiety.

anaesthetized rat = test: Anaesthetized rat, blood pressure and PAF hypotension; format: in vivo; settings: anaesthetized rat
Source text: (§5) On the other hand, in vivo administered PAF, induced a marked hypotension in the anaesthetized rat and guinea pig.

anaesthetized guinea pig = test: Anaesthetized guinea pig, PAF bronchoconstriction and hypotension; format: in vivo
Source text: as §5

tail-flick = test: Tail-flick in mice; format: in vivo; settings: i.p.
[7] = sustained depolarization and PAF 10^−7M

In the case of `C[C@]12CC[C@H](O)CC1=CC[C@@H]1[C@@H]2CC[C@]2(C)[C@H]3[C@@H]4OC[C@H]3O[C@@H](O)[C@]12O4` [MV8608, (15R, 16R, 20S)-14, 16:15,20:16,21-triepoxi-15,16-seco 14β, 17α-pregn-5-ene-3β, 15-diol], the “basal [Ca]i” value (R-type Ca^2+ channel [1]) is reported as “decrease of basal sustained increase of [Ca]i”, the “overall effect on T-type ICa” value (T-type Ca^2+ current; 10^−9M and 10^−7M, heart cells) is reported as “very weak depressor; also recorded: relative weak depressing effect” and the “effect on T-type ICa amplitude” value (T-type Ca^2+ current; 10^−9M to 10^−7M, n=7) is reported as “had no effect”. For the same compound, the “change of L-type ICa amplitude effect at higher concentration” value (L-type Ca^2+ current; 5×10^−7M) was “further slight increase”, the “decrease of L-type ICa amplitude” value (L-type Ca^2+ current; 10^−9M) was 10% and the “effect on L-type ICa” value (L-type Ca^2+ current; 10^−11 to 10^−10M) was “not affected”. For the same compound, the “overall effect on L-type Ca2+ channel” value (L-type Ca^2+ current) was “very weak depressor; also recorded: relative weak depressing effect”, the “cytosolic and nuclear Ca2+ sustained overload” value (R-type Ca^2+ channel [2]; 10^−7M, KCl 30 mM and PAF, nifedipine present) was “blocked both the cytosolic and nuclear Ca^2+ sustained overload” and the “prevention of depolarization-induced stimulation of R-type channel ([Ca]c, [Ca]n)” value (R-type Ca^2+ channel [2]; 10^−8 M and 10^−7 M) was “prevented the stimulation of the R-type Ca^2+ channel”. For the same compound, the “prevention of high PAF action” value (R-type Ca^2+ channel [2]; PAF 10^−7 M, 10^−9M) was “succeeded in preventing the high PAF action”, the “sustained increase of [Ca]c and [Ca]n induced by high PAF” value (R-type Ca^2+ channel [2]; MV8608 10^−6M) was “significantly decrease; also recorded: blocked” and the “sustained depolarization induced sustained increase of [Ca]c and [Ca]n” value (R-type Ca^2+ channel [2]) was “blocked completely”. For the same compound, the “prevention of sustained increase of [Ca]c and [Ca]n” value (R-type Ca^2+ channel [2]; [7]) was “preventive effect”, the “inhibition of BK-induced contraction of rat uterus” value [3] was “selective in its ability to inhibit the contraction of rat uterus induced by BK” and the “sustained increase of [Ca]i” value (R-type Ca^2+ channel [4]; BK 10^−6M and PAF 10^−9M) was “blockade”. The “sustained increase of [Ca]i” value (R-type Ca^2+ channel [5]) was “blockade”, the “response to ACh (arterial) and AngII (venous)” value [6] was “unaffected” and the “PAF-induced responses (arterial vasodilatation, venconstriction)” value ([6]; 1 μM in FIG. 24) was “concentration-dependent inhibition; also recorded: blocked PAF”.
With `COC1CC(OC2C(C)OC(O[C@H]3CC[C@@]4(C)C(=CC[C@@H]5[C@@H]4CC[C@]4(C)[C@H]6[C@@H]7OC[C@H]6O[C@@H](O)[C@]54O7)C3)CC2OC)OC(C)C1OC1CC(OC)C(OC2CC(OC)C(OC3OC(C)C(OC(C)=O)C(OC)C3OC(C)=O)C(C)O2)C(C)O1` (stereo partly shown) [MV8612] the “hypotensive effect of PAF” value (anaesthetized rat) was “Identical inhibition”, the “decrease of L-type ICa amplitude” value (L-type Ca^2+ current; 10^−7M) was 62% and the “decrease of L-type ICa amplitude” value (L-type Ca^2+ current; 10^−8M) was 25%. The “decrease of L-type ICa amplitude” value (L-type Ca^2+ current; 10^−9M) was 10%, the “overall effect on L-type Ca2+ channel” value (L-type Ca^2+ current) was “more potent L-type Ca^2+ channel antagonist properties than that of MV8608” and the “sustained increase of [Ca]c and [Ca]n induced by high PAF” value (R-type Ca^2+ channel [2]; MV8612 10^−8M) was “blocked”. For the same compound, the “sustained depolarization induced sustained increase of [Ca]c and [Ca]n” value (R-type Ca^2+ channel [2]) was “blocked completely”, the “potency of blocking sustained increase of [Ca]c and [Ca]n, comparison” value (R-type Ca^2+ channel [2]; [7]) was “more potent blocker than MV8608” and the “potency of preventing stimulation of R-type channel, comparison” value (R-type Ca^2+ channel [2]; [7]) was “equipotent in preventing”. The “prevention of sustained increase of [Ca]c and [Ca]n” value (R-type Ca^2+ channel [2]; [7]) was “preventive effect”, the intrinsic hypotensive effect (anaesthetized guinea pig; guinea pig) was “devoid of marked intrinsic effect” and the “bronchoconstrictive responses to PAF” value (anaesthetized guinea pig; pretreatment) was “abolishes”. The “hypotensive effects of PAF” value (anaesthetized guinea pig; pretreatment) was “very significantly reduced; also recorded: abolishes”, the “hypotensive effect of PAF after withdrawal of treatment” value (anaesthetized guinea pig; same animal) was “fully restored” and the “sustained increase of [Ca]i” value (R-type Ca^2+ channel [4]; sustained depolarization and ET-1 10^−9M) was “blockade”. For the same compound, the “ID50 TAIL-FLICK” value (tail-flick) was “no effect”.
